# Assay: cn = amount concentration of the nth substance listed, in mol/dm3
# Settings: 303.15 K; 101 kPa; Liquid; 4510 conductivity meter; c1 = 0.001
smiles,measurement,value
CC1=C(C(=O)O)N2C(=O)[C@@H](NC(=O)[C@H](N)c3ccc(O)cc3)[C@H]2SC1 [cefadroxil] + O,electrical conductivity,0.0001 S/m

# — the NIST ThermoML archive (doi:10.1016/j.jct.2013.04.007)
